Measurements published in PMC5412286, “Biosynthesis of α-Glucosidase Inhibitors by a Newly Isolated Bacterium, Paenibacillus sp. TKU042 and Its Effect on Reducing Plasma Glucose in a Mouse Model” (International Journal of Molecular Sciences, 2017).
Marks after values point to notes of the source that are not given here.

Assays:
ICR mice = test: diarrhea / ill effects in the sucrose tolerance test; conditions: FNB 100, 200 or 400 mg, acarbose 12.5 mg, FNB (100, 200 mg) with acarbose 12.5 mg
Protocol: A sucrose solution was orally administered at 3 g/kg bw and blood was sampled and measured after 0.5, 1, 1.5 and 2 h.

Rat α-glucosidase = test: rat intestinal α-glucosidase inhibition assay; type: biochemical
Protocol: To determine rat intestinal α-glucosidase inhibition, the techniques from the previous report were followed, with modifications. One hundred mg of rat-intestinal acetone powder was suspended in 4 mL of 0.1 mol/L potassium phosphate buffer (NPB), pH 7. The suspension was sonicated several times for 12 s at 4 °C and then centrifuged for 20 min at 10,000× g. The residues were twice suspended with 3 mL of 0.1 mol/L NPB at pH 7, as described above. The resulting supernatant was mixed together and dialyzed for 12 h at 4–6 °C, and then used for the assay. The α-glucosidase, sample solutions and buffer were pre-mixed at volumes of 50, 50 and 100 μL, respectively. After pre-incubation at 37 °C for 20 min, the reaction started when 50 μL of p-nitrophenyl glucopyranoside (10 mmol/L) was added to the mixture. After 20 min at 37 °C, 100 μL Na2CO3 solution (1 mol/L) was added to terminate the reaction. The absorbance of the final mixture was measured at 410 nm and used to calculate inhibition (%) using the following equation: α-glucosidase inhibitory activity (%) = (A − B)/A × 100 where “A” is the absorbance of the control (buffer was used instead of sample with the same volume) and “B” is the absorbance of the final mixture containing the sample and α-glucosidase. The IC50 value was defined and determined as per the previous study. […]

[1] = biological target: T1, Saccharomyces cerevisiae α-glucosidase (Saccharomyces cerevisiae, UniProt P53341); test: yeast α-glucosidase inhibition assay; type: biochemical; conditions: S. cerevisiae α-glucosidase
T1 construct: purchased Sigma Chemical Co., St. Louis, MO, USA
Protocol: SPP, SHP (shrimp head powder), and NB were used as the sole sources of C/N with concentrations of 1%, 1% and 0.8%, respectively. Fermentation conditions were set at 30 °C, shaking speed of 150 rpm, 100/250 mL for the medium/flask volume ratio, and 1 mL of bacterial seed solution (OD660nm = 0.38). The inhibition against yeast α-glucosidase was then tested and calculated in % (A) or U/mL (B); the growth of Paenibacillus sp. TKU042 was detected at OD660nm (C). […] Saccharomyces cerevisiae α-glucosidase was used to test aGI activity.
All of the isolated strains were incubated in a 250-mL Erlenmeyer flask with 50 mL of the same medium, but without agar. Fermentation was performed at 37 °C and a 150 rpm shaking speed. After 1–4 days of fermentation, the culture was centrifuged at 500 rpm for 10 min to remove the medium residue. The solution was then centrifuged again at 4000 rpm for 20 min to separate the cells from the culture supernatant. The supernatant was then used to test yeast α-glucosidase inhibitory activity. […] The screening of active bacteria was based on the inhibitory activity of the supernatant.
Three sources of C/N (1% SPP, 1% SHP, and 0.8% NB) were used to cultivate Paenibacillus sp. TKU042; conditions were set at 30 °C, a shaking speed of 150 rpm and a 100/250 mL medium/flask volume ratio for nine days. […]

[2] = DPPH radical scavenging activity assay
Protocol: One hundred and twenty microliters of each sample (at different concentrations) was mixed with 30 µL of a methanolic solution containing 0.75 mM DPPH radicals in the well of a plate with 96 wells. The mixture was kept in the dark for 30 min before absorbance at 517 nm was measured. Radical scavenging activity was calculated using the following formula: Antioxidant activity (%) = [(AB − AA)/AB] × 100 where AB and AA stand for absorption of the blank sample (t = 0 min) and absorption of the tested sample solution (t = 30 min), respectively. α-Tocopherol dissolved in MeOH was also analyzed as a control.

T1 sequence (P53341 whole entry): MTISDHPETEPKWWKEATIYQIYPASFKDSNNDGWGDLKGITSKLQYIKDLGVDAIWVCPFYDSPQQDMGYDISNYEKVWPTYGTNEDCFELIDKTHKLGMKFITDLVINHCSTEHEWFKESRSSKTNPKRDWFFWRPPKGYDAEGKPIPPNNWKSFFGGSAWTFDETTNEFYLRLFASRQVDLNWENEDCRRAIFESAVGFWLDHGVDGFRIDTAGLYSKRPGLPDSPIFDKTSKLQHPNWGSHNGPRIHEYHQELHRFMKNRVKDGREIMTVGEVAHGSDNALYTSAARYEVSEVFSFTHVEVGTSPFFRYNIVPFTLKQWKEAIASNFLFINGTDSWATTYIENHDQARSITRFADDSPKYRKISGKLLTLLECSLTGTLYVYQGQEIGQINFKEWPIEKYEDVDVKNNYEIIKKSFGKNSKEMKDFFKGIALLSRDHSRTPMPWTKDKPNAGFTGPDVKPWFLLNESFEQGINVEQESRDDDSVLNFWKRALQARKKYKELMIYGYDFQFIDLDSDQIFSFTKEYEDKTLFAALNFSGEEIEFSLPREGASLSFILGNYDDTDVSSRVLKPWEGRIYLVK

Row | antioxidant activity IC50 (DPPH radical scavenging) ([2]; DPPH, 30 min, 517 nm) [µg/mL] | SMILES | ill effects (diarrhea), in words (ICR mice) | IC50 (Rat α-glucosidase) | Maximum Inhibitory Activity (Rat α-glucosidase) [%] | Maximum Inhibitory Activity [1] [%] | antioxidant activity achieved (DPPH) ([2]; maximum activity)
1 |  | C[C@H]1O[C@H](O[C@H]2[C@H](O)[C@@H](O)[C@@H](O[C@H]3[C@H](O)[C@@H](O)C(O)O[C@@H]3CO)O[C@@H]2CO)[C@H](O)[C@@H](O)[C@@H]1N[C@H]1C=C(CO)[C@@H](O)[C@H](O)[C@H]1O (stereo partly drawn) [acarbose] | No ill effects | 107 ± 2.5 ^c µg/mL | 89 ± 2.4 | 63 ± 2.5 | 
2 | 24.7 ± 1.2 | Cc1c(C)c2c(c(C)c1O)CC[C@@](C)(CCC[C@H](C)CCC[C@H](C)CCCC(C)C)O2 [α-Tocopherol] |  |  |  |  | approximately 100%
